In US20160340656A1, “PEPTIDES DERIVED FROM GSE 24.2 FOR TREATING DISEASES CAUSED BY OXIDATIVE STRESS AND DAMAGE TO DNA” (CONSEJO SUPERIOR DE INVESTIGACIONES CIENTÍFICAS (CSIC), priority 2013, published 2016):
Entries after “also recorded” stand apart in the source; their conditions may differ.

Columns and labels:
F9A353V cells = experiment: Repair of damage to DNA: Western blot of histone H2AX (Ser139) in F9A353V cells transfected with synthetic peptides; type: cell-based
Description: FIG. 6. Western blot of F9 and F9A353V cells after 24 hours of transfection with chemically synthesized peptides derived from GSE24.2. The peptides indicated on each line of gel were transfected (15 μg of each peptide) on a 30 mm plate. After separating the protein extracts on polyacrylamide gels and transferring them to a nitrocellulose membrane, the membrane was hybridised with an antibody against histone H2AX (Ser139) and then with an antibody against α-tubulin as a loading control.
FIG. 7. Quantification of Western blot of FIG. 6. The signal obtained with histone H2AX (Ser139) was corrected with the signal of α-tubulin considering the signal obtained with the F9 cells transfected with beta-galactosidase (as control) as 1, using the NIH-Image program.
FIG. 8. Western blot of F9 and F9A353V cells after 24 of transfection with the GSE4 peptide at increasing concentrations. […]
FIG. 9. Quantification of the Western blot of FIG. 8. […]
In order to optimise the operating conditions of peptide GSE4, different amounts of peptide GSE4 were transfected into F9A353V cells and the amount of damage to DNA was determined using a specific antibody as was performed in FIG. 6 (FIG. 8). After quantification of the Western blot (FIG. 9), maximum inhibition of damage to DNA was obtained by transfecting 8 μg of peptide GSE4.

[1] = test system: AT3487 cells from patients with ataxia telangiectasia; experiment: Damage to DNA in AT cells: phosphorylated histone H2AX (Ser139) foci after lentiviral expression of GSE24.2; type: cell-based, human
Description: FIG. 1. Determination of damage to DNA in AT cells: AT3784 AT cells were infected with a lentiviral vector expressing GSE24.2 or a GFP empty vector and were fixed 24 hours later to be processed and hybridised with an antibody against phosphorylated histone H2AX (Ser139). Control C-1787 cells were used as the negative control. Next they were hybridised with a fluorescein-labelled antibody and were stained with DAPI to locate the nuclei.
To perform this test, cell lines from patients with ataxia telangiectasia (AT, from the Coriell repository) with a mutation in the gene ATM and denominated AT3487 were used. Cell line C-1787 was used as the control cell line. The cells were infected with the bicistronic lentiviral vector pCMV-GFP-GSE24.2. After 48 hours of infection the cells were fixed with formaldehyde and then permeabilized by treating them with Triton X-100. The damage to DNA was estimated by studying the signal after hybridisation of the cells with an antibody against histone H2AX Ser139 and subsequent hybridisation with an antibody bound to fluorescein. The number of foci with stain for histone H2AX/nucleus was determined by confocal microscopy in a total of 200 cells and the data represented as a percentage of cells with a specific number of foci.

[2] = 200 cells, lentiviral expression of GSE24.2

Sequence | amount of peptide transfected giving maximum inhibition of damage to DNA (F9A353V cells; increasing amounts of peptide) | repair of damage to DNA (phosphorylation of histone H2AX) (F9A353V cells; peptides lipofected with Proteojuice, 24 hours) | correction of overall damage to DNA [1] | AT cells in which levels of damage to DNA are reduced [1, 2] | AT cells in which overall damage to DNA is fully corrected [1, 2]
GFINLDKPSNP [GSE4] | 8 µg | substantially improved the activity of the full domain; also recorded: smallest sized peptide able to repair the damage to DNA |  |  | 
GFINLDKPSNPSSHEVVAWIRRILRVEKTGHSGTLDPKVTGCLIVCIERATRLVK (GSE24.2; listed as Homo sapiens) [55-amino-acid peptide corresponding to the protein dyskerin; known from WO2007/090911] |  |  | 40% | 25% | 20%
